Data: article PMC3386930, “Altering APP Proteolysis: Increasing sAPPalpha Production by Targeting Dimerization of the APP Ectodomain” (PLoS ONE, 2012)
Entries after “also recorded” stand apart in the source; their conditions may differ.

Columns and labels:
MBP-eAPP230–624 [1] = assay: Small-angle X-ray scattering (SAXS) of MBP-eAPP230–624 complexes; format: binding; conditions: 50 µM compound, 1:12 molar ratio, PBS plus 2% DMSO
Procedure: (§1) The excitation spectra of the intrinsic tryptophan fluorescence were recorded using either a Shimadzu RF-530PC (Shimadzu Scientific Instruments) or a Spectramax XPS spectrophotometer (Molecular Devices).
The samples were incubated on ice for 20 minutes and then concentrated to 50 µl with 10-kDa cutoff concentrators (Millipore). […] Samples of the filtrates were used for buffer subtraction.
The samples were then concentrated and purified with a Superdex S200 size-exclusion column with 20 mM Tris pH 7.4, 100 mM sodium chloride and 2 mM EDTA. Samples of the protein buffer from the size-exclusion columns were used for buffer subtraction.
Data collection and processing
Small-angle X-ray scattering data were collected using protein concentrations in the range of 0.5–3 mg/ml and an X-ray wavelength of 1.11 Å at beam line 12.3.1 (Advanced Light Source). Data were integrated with software customized for the beam line and processed with the program PRIMUS [30]. The program GNOM [31] was used to calculate the maximum dimension and the radius of gyration and to estimate the intensity of the scattering at zero angle for higher concentration samples.

[2] = system: B103 rat neuroblastoma cells stably expressing human wild-type APP; assay: sAPPα and sAPPβ production in B103 cells (AlphaLISA); format: cell-based; conditions: 1 µM compound, 24 hours, 100,000 cells per well, vs 0.01% DMSO
Procedure: (§2) B103 rat neuroblastoma cells and 7W-CHO cells were seeded at 100,000 or 50,000 cells per well in a 96-well plate and allowed to grow for one day. The B103 rat neuroblastoma cells stably expressing human wild-type APP were a kind gift from Dr. Lennart Mucke (J. David Gladstone Institute of Neurological Disease and University of California, San Francisco). The 7W-CHO cells were a kind gift from Dr. Edward Koo (Department of Molecular Pathology, University of California, San Diego). The cell culture medium was then changed and the cells treated with 1 µM disulfiram, 1 µM sulfiram, or 0.01% DMSO (control). After 24 hours, the amount of sAPPα and sAPPβ produced in the medium was quantified using the AL231C and AL232C AlphaLISA kits from Perkin Elmer, respectively, modified using a custom biotinylated APP antibody.
A) Effect of treatment with disulfiram and sulfiram on sAPPα and Aβ production in 7W-CHO cells. […] After 24 hours, the amount of sAPPα and sAPPβ produced in the medium was quantified using the AL231C and AL232C AlphaLISA kit from Perkin Elmer, modified using a custom biotinylated human APP antibody. B) Effect on the ratio of α to β cleavage in 7W-CHO cells, as calculated by dividing the amount of sAPPα to sAPPβ produced by the 50,000 7W-CHO cells during one day under the effect of either disulfiram, sulfiram or a DMSO control. […]

eAPP230–624 [3] = target: T1, eAPP230–624 (Homo sapiens, UniProt P05067); assay: Difference absorption spectra of eAPP230–624; format: binding; conditions: 1:6 molar ratio, 8.3 µM eAPP230–624, 50 µM compound, PBS plus 2% DMSO
T1 construct: made in house
T1 sequence (P05067 230-624 isoform P05067-4): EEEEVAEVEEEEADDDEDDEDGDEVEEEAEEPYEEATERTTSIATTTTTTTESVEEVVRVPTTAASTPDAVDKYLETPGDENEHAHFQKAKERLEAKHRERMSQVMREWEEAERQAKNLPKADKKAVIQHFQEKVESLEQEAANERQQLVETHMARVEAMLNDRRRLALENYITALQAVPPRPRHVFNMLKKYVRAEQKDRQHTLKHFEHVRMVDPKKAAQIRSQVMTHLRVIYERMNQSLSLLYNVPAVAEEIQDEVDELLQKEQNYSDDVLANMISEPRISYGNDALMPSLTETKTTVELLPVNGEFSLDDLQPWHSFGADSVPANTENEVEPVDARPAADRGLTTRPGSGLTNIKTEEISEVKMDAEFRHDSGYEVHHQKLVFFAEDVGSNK

MBP-eAPP230–624 [4] = assay: ADAM10 cleavage of MBP-eAPP230–624 in vitro (sAPPα AlphaLISA); format: biochemical; conditions: 1 uM disulfiram 15 minutes, then ADAM10 60 minutes
Procedure: Then, ADAM10 was added for 60 minutes. Time points were taken every 20 minutes.

7W-CHO cells = assay: sAPPα and sAPPβ production in 7W-CHO cells (AlphaLISA); format: cell-based; conditions: 1 µM compound, 24 hours, 50,000 cells per well, vs 0.01% DMSO
Procedure: as §2
A) Effect of treatment with disulfiram and sulfiram on sAPPα and Aβ production in 7W-CHO cells. 7W-CHO cells were seeded at 50,000 cells per well in a 96-well plate and allowed to grow for one day. The cell culture medium was then changed and the cells treated with 1 µM disulfiram, 1 µM sulfiram, or 0.01% DMSO (control). After 24 hours, the amount of sAPPα and sAPPβ produced in the medium was quantified using the AL231C and AL232C AlphaLISA kit from Perkin Elmer, modified using a custom biotinylated human APP antibody. B) Effect on the ratio of α to β cleavage in 7W-CHO cells, as calculated by dividing the amount of sAPPα to sAPPβ produced by the 50,000 7W-CHO cells during one day under the effect of either disulfiram, sulfiram or a DMSO control. C) Effect on the ratio of α to β cleavage in B103 cells. B103 neuroblastoma cells were seeded at 100,000 cells per well in a 96-well plate and allowed to grow for one day. The cell culture medium was then changed and the cells treated with 1 µM disulfiram, 1 µM sulfiram, or 0.01% DMSO (Control). After 24 hours, the amount of sAPPα and sAPPβ produced in the medium was quantified using the same modified AL231C and AL232C AlphaLISA kit from Perkin Elmer. The ratio of α to β cleavage was calculated by dividing the amount of sAPPα to sAPPβ produced by the 100,000 B103 cells during one day under the effect of the disulfiram, sulfiram or DMSO control.

eAPP230–624 [5] = target: T1, eAPP230–624; assay: Intrinsic tryptophan fluorescence of eAPP230–624; format: binding
Procedure: as §1
Full emission spectra were measured with the Shimadzu RF-530PC using a 3 ml quartz cuvette, a 5 nm slit width and protein concentrations between 0.2–0.6 µM. […] For these larger dilutions, control titrations with the protein alone were used to generate a scaling matrix where the scale factor was both a function of wavelength and dilution. […] A similar scaling matrix was used to correct for the effect of dilution with DMSO. […] All titrations were performed at 24°C. The oligomers were stored on ice during the experiment.
These concentrations are analogous to concentrations used to create complexes for the small angle x-ray scattering analysis. The incubated material was diluted with PBS so that the final protein concentration was 0.5 µM. The spectra were recorded with the Shimadzu […].
For experiments with the Spectromax XPS plate reader, an excitation wavelength of 295 nm was used. This excitation wavelength was chosen to minimize both the contribution of tyrosine in the protein and the background fluorescence of the 96-well plates (Costar #3915).
For the quenching experiments, the data were analyzed by constructing Stern-Volmer plots, F0/F vs. Q, where Fo is the intensity of the fluorescence at zero concentration, F is the intensity of the fluorescence, and Q is the concentration of the quenching agent. When quenching is through either a static (binding) or dynamic (collisional) mechanism this plot is linear and follows the equation: [drawing 1] (1) where Ksv is the quenching constant. When both processes are present the Stern-Volmer plot is quadratic: [drawing 2] (2) where KD is the equilibrium constant associated with dynamic quenching and Ks is the equilibrium constant associated with static quenching. All parameters were determined using PRISM (GraphPad) and the appropriate non-linear curve fitting routine.
The centroid wavelength (λc) was calculated as: [drawing 3] (3) where I(λi) is the intensity observed for the wavelength (λi). The range of wavelengths was 310–390 nm.

SMILES: CCN(CC)C(=S)SSC(=S)N(CC)CC [Disulfiram]
- effect on monomer-dimer equilibrium / dimerization of MBP-eAPP230–624 (in words) (MBP-eAPP230–624 [1]): inhibits dimerization of MBP-eAPP230–624
- effect on monomer-dimer equilibrium / dimerization of MBP-eAPP230–624 (in words) (MBP-eAPP230–624 [1]; listed as disulfiram): significantly affected the monomer-dimer equilibrium of MBP-eAPP230–624 in favor of the monomer; also recorded: mixture of monomer and dimer
- sAPPα production / α-cleavage of APP (in words) [2]: significantly enhance the production of sAPPα; also recorded: enhance α-cleavage significantly
- change in extinction coefficient (eAPP230–624 [3]): significant drop in the extinction coefficient
- accessibility of the α-cleavage site to ADAM10 cleavage (in words) (MBP-eAPP230–624 [4]): increase the accessibility of the α-cleavage site near lysine 612 to ADAM10 cleavage
- sAPPα production / α-cleavage of APP (in words) (7W-CHO cells): increase sAPPα production
- sAPPα production / α-cleavage of APP (in words) (7W-CHO cells; listed as disulfiram): significantly enhance the production of sAPPα; also recorded: enhance α-cleavage significantly
- fluorescence peak wavelength (shifted from 344 nm) (eAPP230–624 [5]; 0.64 µM eAPP230–624, disulfiram 0–130 µM): 357 nm
- quenching of intrinsic fluorescence (in words) (eAPP230–624 [5]; 0.64 µM eAPP230–624, disulfiram 0–130 µM, sulfiram 0–320 µM, Shimadzu RF-530PC): significantly quenched the intrinsic fluorescence
- Stern-Volmer slope relative to sulfiram (eAPP230–624 [5]; 0.64 µM eAPP230–624, disulfiram vs sulfiram): 1.6 times
- relative binding affinity for eAPP230–624 (in words) (eAPP230–624 [5]; inferred from Stern-Volmer slopes, disulfiram vs sulfiram): higher binding affinity for eAPP230–624 than sulfiram
- effect on dimerization of the ectodomain fragment (in words) (eAPP230–624 [5]; intrinsic fluorescence, confirmed with SAXS): inhibit dimerization of the ectodomain fragment
